# Several values for one entry are separate records, joined by “and”; a condition that tells them apart may be missing. Identical values can stand only once. Entries after “also recorded” stand apart in the source; their conditions may differ.
# What was measured:
# LRRK1 = LRRK1 (Homo sapiens, UniProt Q38SD2); assay: Western blot of Rab7 phosphorylation (pS72) in 293T cells transfected with LRRK1 and GFP-Rab7; assay type: cell-based; details: for pRab7/Rab7/LRRK1 normalized to DMSO, Mean / pRab7/Rab7/LRRK1 normalized to DMSO: 4 h; for pRab7/Rab7/LRRK1 normalized to DMSO, Mean: 3 replicates; for pRab7/Rab7/LRRK1 normalized to DMSO: individual Western blots
# Sequence of LRRK1 (Q38SD2 whole entry): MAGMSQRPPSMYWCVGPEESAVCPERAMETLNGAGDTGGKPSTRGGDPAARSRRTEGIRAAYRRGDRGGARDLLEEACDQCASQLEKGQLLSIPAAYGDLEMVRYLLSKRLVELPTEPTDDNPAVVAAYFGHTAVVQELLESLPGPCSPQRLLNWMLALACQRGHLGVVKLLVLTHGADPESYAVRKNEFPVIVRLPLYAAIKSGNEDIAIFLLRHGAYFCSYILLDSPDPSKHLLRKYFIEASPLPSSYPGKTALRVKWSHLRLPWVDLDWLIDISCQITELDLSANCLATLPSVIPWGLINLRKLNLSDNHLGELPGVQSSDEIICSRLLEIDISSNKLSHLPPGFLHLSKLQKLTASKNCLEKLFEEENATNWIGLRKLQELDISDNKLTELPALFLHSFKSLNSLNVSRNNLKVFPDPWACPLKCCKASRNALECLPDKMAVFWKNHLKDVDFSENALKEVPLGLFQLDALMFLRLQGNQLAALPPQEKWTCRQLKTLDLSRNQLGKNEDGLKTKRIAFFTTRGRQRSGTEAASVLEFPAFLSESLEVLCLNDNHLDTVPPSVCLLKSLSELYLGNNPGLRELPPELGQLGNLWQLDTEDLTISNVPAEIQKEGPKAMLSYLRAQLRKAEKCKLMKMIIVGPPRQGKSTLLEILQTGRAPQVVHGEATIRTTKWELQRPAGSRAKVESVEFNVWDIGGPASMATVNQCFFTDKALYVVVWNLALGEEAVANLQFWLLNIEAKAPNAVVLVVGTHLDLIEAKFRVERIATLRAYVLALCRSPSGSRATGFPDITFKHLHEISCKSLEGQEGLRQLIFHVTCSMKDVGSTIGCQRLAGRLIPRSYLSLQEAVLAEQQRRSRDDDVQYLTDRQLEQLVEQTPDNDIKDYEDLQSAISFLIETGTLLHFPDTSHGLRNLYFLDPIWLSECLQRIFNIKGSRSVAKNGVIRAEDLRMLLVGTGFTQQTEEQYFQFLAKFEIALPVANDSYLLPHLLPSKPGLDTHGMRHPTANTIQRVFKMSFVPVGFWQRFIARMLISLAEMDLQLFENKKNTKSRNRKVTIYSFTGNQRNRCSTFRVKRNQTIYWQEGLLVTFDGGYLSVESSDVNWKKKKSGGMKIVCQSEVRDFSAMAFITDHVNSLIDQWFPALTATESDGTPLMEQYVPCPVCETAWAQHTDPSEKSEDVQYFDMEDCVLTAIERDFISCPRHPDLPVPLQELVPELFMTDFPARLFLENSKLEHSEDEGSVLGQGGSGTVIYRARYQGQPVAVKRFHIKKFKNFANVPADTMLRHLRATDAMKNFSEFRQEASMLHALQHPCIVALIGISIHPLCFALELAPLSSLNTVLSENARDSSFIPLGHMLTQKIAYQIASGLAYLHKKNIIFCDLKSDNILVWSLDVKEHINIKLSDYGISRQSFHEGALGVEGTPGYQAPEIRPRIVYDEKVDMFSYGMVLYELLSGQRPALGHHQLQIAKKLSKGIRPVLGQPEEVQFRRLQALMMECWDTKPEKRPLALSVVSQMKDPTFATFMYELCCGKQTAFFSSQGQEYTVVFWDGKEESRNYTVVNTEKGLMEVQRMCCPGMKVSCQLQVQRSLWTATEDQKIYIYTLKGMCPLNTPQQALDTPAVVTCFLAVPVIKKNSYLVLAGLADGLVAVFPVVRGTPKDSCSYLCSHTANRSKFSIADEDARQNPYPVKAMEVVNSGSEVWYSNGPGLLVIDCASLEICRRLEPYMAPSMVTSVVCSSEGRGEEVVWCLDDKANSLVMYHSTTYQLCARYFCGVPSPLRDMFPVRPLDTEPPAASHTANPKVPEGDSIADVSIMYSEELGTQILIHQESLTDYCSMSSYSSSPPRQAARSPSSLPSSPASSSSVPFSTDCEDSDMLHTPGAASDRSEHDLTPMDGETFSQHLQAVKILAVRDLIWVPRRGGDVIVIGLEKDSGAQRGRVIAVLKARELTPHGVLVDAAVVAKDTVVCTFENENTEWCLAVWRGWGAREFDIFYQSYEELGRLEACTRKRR
# Experimental: (§1) For all in cell kinase assays, after 48 hours, transfected cells were treated with either DMSO (control) or the indicated inhibitors for 4 hours at 37°C and 5% CO2. Following treatments, cells were washed three times with ice cold PBS. Cells were then lysed in ice cold radioimmunoprecipitation assay (RIPA) lysis buffer [50 mM tris (pH 8.0), 150 mM NaCl, 1% Triton X-100, 0.1% SDS, 0.5% sodium deoxycholate, and 1 mM DTT] in the presence of complete mini EASYpack protease inhibitor cocktail and the PhosSTOP EASYpack phosphatase inhibitor cocktail (Roche). Resuspended and lysed cells were clarified by centrifugation at 13,000g for 15 min at 4°C. NuPAGE LDS Sample Buffer (1×) and NuPAGE Sample Reducing Agent (1×; Invitrogen) were added to the clarified supernatants, and the samples were boiled at 95°C for 5 min and spun down at 13,000g for 10 min. For Western blotting, 15 μl of sample was loaded into a NuPAGE 4 to 12% gradient bis-tris gel (Invitrogen) and run at 120 V for 75 min before transfer to polyvinylidene difluoride transfer membrane (0.45-μm pore size, Millipore) for 240 min at 80 V at 4°C. The membrane was blocked in 5% milk in 1× Tris-buffered saline (TBS) [20 mM tris (pH 8.0) and 150 mM NaCl] for 1 hour shaking at room temperature. Primary antibodies [monoclonal rabbit anti-LRRK2 (Abcam, ab133474; RRID: AB_2713963), polyclonal rabbit anti-LRRK1 (Abcam, ab228666), monoclonal rabbit anti-LRRK2 phospho-S935 (Abcam, ab133450; RRID: AB_2732035), monoclonal rabbit anti-Rab8a phospho-T72 (Abcam, ab230260; RRID: AB_2814988), monoclonal rabbit anti-Rab7 phospho-S72 (Abcam, ab302494; RRID: AB_2933985), monoclonal rabbit anti–glyceraldehyde-3-phosphate dehydrogenase (GAPDH; Cell Signalling Technology, 2118; RRID: AB_561053), and monoclonal mouse anti-GFP (Santa Cruz Biotechnology, sc-9996; RRID: AB_627695)] were diluted in 5% milk in TBS and incubated with membrane for 16 hours at 4°C. Following incubation, membranes were washed three times with 1× TBS-T [20 mM tris (pH 8.0), 150 mM NaCl, and 0.1% Tween 20] before incubation with IRDye 680RD goat anti-rabbit IgG (LI-COR, 926-68071; RRID: AB_10956166) and IRDye 800CW goat anti-mouse IgG (LI-COR, 926-32210; RRID: AB_621842) secondary antibodies in 5% milk in 1× TBS for 1 hour at room temperature. Membranes were then washed three times in 1× TBS-T before imaging on Li-COR Odyssey CLx controlled by Imaging Studio software (www.licorbio.com/image-studio, RRID:SCR_015795). Image processing and quantification were performed in ImageJ version 2.14.0 (National Institutes of Health; https://imagej.net/, RRID:SCR_003070). The signal intensity of each band was assessed using the Analyze>Gels tool. The band intensity for phosphorylated LRRK2 was measured and compared to total LRRK2 levels (run under identical conditions on a separate gel). Band intensity for phosphorylated Rab7 or Rab8a was measured and compared against total GFP-Rab7 or GFP-Rab8a (using anti-GFP antibody) and LRRK1/LRRK2 levels as appropriate. Comparative statistical analysis of phosphorylation levels was analyzed using a one-way analysis of variance (ANOVA) and corrected using Tukey’s multiple comparisons test in GraphPad Prism 10 (www.graphpad.com/, RRID:SCR_002798). (For current step-by-step protocol for LRRK transfection and Western blotting, see dx.doi.org/10.17504/protocols.io.kxygx9bozg8j/v1.)
# [1] = test system: LRRK2 S935 phosphorylation; assay: Western blot of LRRK2 biomarker site pS935 in transfected 293T cells; assay type: cell-based, human; details: for pS935 LRRK2/LRRK2 normalized to DMSO, Mean / pS935 LRRK2/LRRK2 normalized to DMSO: 4 h; for pS935 LRRK2/LRRK2 normalized to DMSO, Mean: 3 replicates; for pS935 LRRK2/LRRK2 normalized to DMSO: individual Western blots, listed as 341
# Experimental: as §1
# LRRK2 = target: T1, LRRK2 (Homo sapiens, UniProt Q5S007); assay: Western blot of Rab8a phosphorylation (pT72) in 293T cells transfected with wild-type LRRK2 and GFP-Rab8a; assay type: cell-based
# T1 construct: wild-type full-length LRRK2 (pcDNA5-LRRK2, RRID: Addgene_229019)
# T1 sequence (Q5S007 whole entry): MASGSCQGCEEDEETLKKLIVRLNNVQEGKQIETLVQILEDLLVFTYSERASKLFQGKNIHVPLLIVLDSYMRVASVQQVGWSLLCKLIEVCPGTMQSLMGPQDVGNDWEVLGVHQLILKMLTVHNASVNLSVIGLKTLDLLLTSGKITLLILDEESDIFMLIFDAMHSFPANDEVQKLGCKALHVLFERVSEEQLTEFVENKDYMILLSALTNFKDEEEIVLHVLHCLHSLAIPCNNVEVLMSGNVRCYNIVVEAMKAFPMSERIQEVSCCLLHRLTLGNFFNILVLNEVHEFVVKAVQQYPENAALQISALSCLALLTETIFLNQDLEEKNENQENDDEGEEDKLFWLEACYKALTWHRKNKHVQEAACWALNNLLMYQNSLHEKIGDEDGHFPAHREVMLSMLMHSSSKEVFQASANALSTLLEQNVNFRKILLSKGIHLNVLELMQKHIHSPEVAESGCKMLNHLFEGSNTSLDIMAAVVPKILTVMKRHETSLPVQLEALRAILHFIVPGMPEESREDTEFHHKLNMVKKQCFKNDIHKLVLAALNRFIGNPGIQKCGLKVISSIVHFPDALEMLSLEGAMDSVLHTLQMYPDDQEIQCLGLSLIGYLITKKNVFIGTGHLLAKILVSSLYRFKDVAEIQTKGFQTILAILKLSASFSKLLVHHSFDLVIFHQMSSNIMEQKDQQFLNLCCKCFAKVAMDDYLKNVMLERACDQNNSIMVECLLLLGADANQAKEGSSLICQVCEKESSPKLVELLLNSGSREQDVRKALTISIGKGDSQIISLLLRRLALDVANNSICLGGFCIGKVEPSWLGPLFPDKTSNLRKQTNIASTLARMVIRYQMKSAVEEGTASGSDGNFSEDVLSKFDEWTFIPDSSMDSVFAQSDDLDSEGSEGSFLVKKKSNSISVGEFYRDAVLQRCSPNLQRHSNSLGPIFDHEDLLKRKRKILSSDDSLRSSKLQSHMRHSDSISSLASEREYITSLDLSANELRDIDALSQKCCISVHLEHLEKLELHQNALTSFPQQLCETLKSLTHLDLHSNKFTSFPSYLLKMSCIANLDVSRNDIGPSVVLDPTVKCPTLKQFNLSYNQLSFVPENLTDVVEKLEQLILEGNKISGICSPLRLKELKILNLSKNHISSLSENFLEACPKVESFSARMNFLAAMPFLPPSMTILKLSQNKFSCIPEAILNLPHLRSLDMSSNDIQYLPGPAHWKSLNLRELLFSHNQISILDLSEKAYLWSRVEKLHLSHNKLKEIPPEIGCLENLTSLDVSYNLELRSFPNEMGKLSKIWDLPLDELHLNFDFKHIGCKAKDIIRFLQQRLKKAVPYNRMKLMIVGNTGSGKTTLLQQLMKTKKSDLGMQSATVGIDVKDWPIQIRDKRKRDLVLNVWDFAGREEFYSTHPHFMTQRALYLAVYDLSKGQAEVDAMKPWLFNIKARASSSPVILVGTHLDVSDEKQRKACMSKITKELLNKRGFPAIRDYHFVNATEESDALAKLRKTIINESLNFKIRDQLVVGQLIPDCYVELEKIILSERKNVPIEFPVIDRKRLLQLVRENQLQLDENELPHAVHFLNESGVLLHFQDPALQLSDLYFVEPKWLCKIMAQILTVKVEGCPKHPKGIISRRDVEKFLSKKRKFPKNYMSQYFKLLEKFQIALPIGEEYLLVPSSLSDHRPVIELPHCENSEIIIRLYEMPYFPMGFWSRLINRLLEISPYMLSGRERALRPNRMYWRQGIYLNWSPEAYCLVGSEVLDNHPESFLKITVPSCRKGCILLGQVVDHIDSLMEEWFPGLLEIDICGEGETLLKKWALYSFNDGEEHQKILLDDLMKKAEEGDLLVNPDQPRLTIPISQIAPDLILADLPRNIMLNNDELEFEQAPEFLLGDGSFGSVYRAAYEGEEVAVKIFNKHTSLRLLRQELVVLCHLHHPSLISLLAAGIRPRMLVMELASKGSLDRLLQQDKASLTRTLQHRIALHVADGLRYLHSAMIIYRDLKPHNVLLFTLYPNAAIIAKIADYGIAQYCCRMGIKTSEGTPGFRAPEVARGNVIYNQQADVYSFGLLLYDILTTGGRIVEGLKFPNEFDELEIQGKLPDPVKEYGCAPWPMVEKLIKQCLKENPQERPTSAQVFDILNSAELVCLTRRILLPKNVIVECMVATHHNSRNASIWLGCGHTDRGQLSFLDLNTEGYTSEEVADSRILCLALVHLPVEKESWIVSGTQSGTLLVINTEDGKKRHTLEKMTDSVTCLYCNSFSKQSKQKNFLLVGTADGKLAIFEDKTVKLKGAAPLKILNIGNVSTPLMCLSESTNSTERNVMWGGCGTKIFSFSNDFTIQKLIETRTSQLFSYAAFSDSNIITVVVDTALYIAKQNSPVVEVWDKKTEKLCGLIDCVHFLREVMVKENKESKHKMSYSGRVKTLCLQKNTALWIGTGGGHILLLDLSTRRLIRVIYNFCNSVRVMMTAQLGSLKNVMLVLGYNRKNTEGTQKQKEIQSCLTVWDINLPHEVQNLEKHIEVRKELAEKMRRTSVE
# Experimental: For all in cell kinase assays, after 48 hours, transfected cells were treated with either DMSO (control) or the indicated inhibitors for 4 hours at 37°C and 5% CO2. Following treatments, cells were washed three times with ice cold PBS. Cells were then lysed in ice cold radioimmunoprecipitation assay (RIPA) lysis buffer [50 mM tris (pH 8.0), 150 mM NaCl, 1% Triton X-100, 0.1% SDS, 0.5% sodium deoxycholate, and 1 mM DTT] in the presence of complete mini EASYpack protease inhibitor cocktail and the PhosSTOP EASYpack phosphatase inhibitor cocktail (Roche). Resuspended and lysed cells were clarified by centrifugation at 13,000g for 15 min at 4°C. […] The membrane was blocked in 5% milk in 1× Tris-buffered saline (TBS) [20 mM tris (pH 8.0) and 150 mM NaCl] for 1 hour shaking at room temperature. […] Membranes were then washed three times in 1× TBS-T before imaging on Li-COR Odyssey CLx controlled by Imaging Studio software (www.licorbio.com/image-studio, RRID:SCR_015795). […] The signal intensity of each band was assessed using the Analyze>Gels tool. The band intensity for phosphorylated LRRK2 was measured and compared to total LRRK2 levels (run under identical conditions on a separate gel). Band intensity for phosphorylated Rab7 or Rab8a was measured and compared against total GFP-Rab7 or GFP-Rab8a (using anti-GFP antibody) and LRRK1/LRRK2 levels as appropriate. Comparative statistical analysis of phosphorylation levels was analyzed using a one-way analysis of variance (ANOVA) and corrected using Tukey’s multiple comparisons test in GraphPad Prism 10 (www.graphpad.com/, RRID:SCR_002798).
smiles,measurement,setting,value
CCSc1nc(NC)c2c(-c3cccc(NC(=O)Nc4cc(C(C)(C)C)nn4-c4ccc(C)cc4)c3)c[nH]c2n1 [Compound 32],"pRab7/Rab7/LRRK1 normalized to DMSO, Mean",LRRK1; 250 nM,0.1265
same,pRab7/Rab7/LRRK1 normalized to DMSO,"LRRK1; 250 nM, listed as RN341",0.09263 and 0.098 and 0.1889
same,"pRab7/Rab7/LRRK1 normalized to DMSO, Mean",LRRK1; 500 nM,0.07673
same,pRab7/Rab7/LRRK1 normalized to DMSO,"LRRK1; 500 nM, listed as RN341",0.0375 and 0.09153 and 0.1011
same,"pRab7/Rab7/LRRK1 normalized to DMSO, Mean",LRRK1; 1 μM,0.0594
same,pRab7/Rab7/LRRK1 normalized to DMSO,"LRRK1; 1 µM, listed as RN341",0.03839 and 0.04963 and 0.09017
same,"pRab7/Rab7/LRRK1 normalized to DMSO, Mean",LRRK1; 5 μM,0.03197
same,pRab7/Rab7/LRRK1 normalized to DMSO,"LRRK1; 5 µM, listed as RN341",0.0003413 and 0.05428 and 0.04127
same,inhibition of LRRK1 kinase activity in cells,"LRRK1; 293T cells, Rab7 phosphorylation, listed as RN341",strong inhibitory effect; also recorded: potently inhibited LRRK1 in cells
same,"pS935 LRRK2/LRRK2 normalized to DMSO, Mean",[1]; 250 nM,0.9603
same,pS935 LRRK2/LRRK2 normalized to DMSO,[1]; 250 nM,0.9872 and 0.9193 and 0.9743
same,"pS935 LRRK2/LRRK2 normalized to DMSO, Mean",[1]; 500 nM,0.9221
same,pS935 LRRK2/LRRK2 normalized to DMSO,[1]; 500 nM,0.9409 and 0.8795 and 0.9459
same,"pS935 LRRK2/LRRK2 normalized to DMSO, Mean",[1]; 1 μM,0.8783
same,pS935 LRRK2/LRRK2 normalized to DMSO,[1]; 1 μM,0.9145 and 0.9018 and 0.8186
same,"pS935 LRRK2/LRRK2 normalized to DMSO, Mean",[1]; 5 μM,0.8974
same,pS935 LRRK2/LRRK2 normalized to DMSO,[1]; 5 μM,0.9195 and 0.9472 and 0.8255
same,"pS935 LRRK2/LRRK2 normalized to DMSO, Mean",[1]; 10 μM,0.9517
same,pS935 LRRK2/LRRK2 normalized to DMSO,[1]; 10 μM,0.9588 and 0.9056 and 0.9906
same,effect on phosphorylation of LRRK2 S935,"[1]; 293T cells, MLi-2 500 nM",none of the tested type II inhibitors (broad-spectrum kinase inhibitor Ponatinib or our top compounds RN277 and RN341) reduced the phosphorylation level at this site
same,"pRab8/Rab8/LRRK2 normalized to DMSO, Mean","LRRK2; 250 nM, 4 h, 3 replicates",1.109
same,pRab8/Rab8/LRRK2 normalized to DMSO,"LRRK2; 250 nM, 4 h, individual Western blots, listed as 341",1.128 and 0.9817 and 1.217
same,"pRab8/Rab8/LRRK2 normalized to DMSO, Mean","LRRK2; 500 nM, 4 h, 3 replicates",0.9957
same,pRab8/Rab8/LRRK2 normalized to DMSO,"LRRK2; 500 nM, 4 h, individual Western blots, listed as 341",1.05 and 0.7587 and 1.178
same,"pRab8/Rab8/LRRK2 normalized to DMSO, Mean","LRRK2; 1 μM, 4 h, 3 replicates",0.8556
same,pRab8/Rab8/LRRK2 normalized to DMSO,"LRRK2; 1 μM, 4 h, individual Western blots, listed as 341",0.8182 and 0.7772 and 0.9713
same,"pRab8/Rab8/LRRK2 normalized to DMSO, Mean","LRRK2; 5 μM, 4 h, 3 replicates",0.5047
same,pRab8/Rab8/LRRK2 normalized to DMSO,"LRRK2; 5 μM, 4 h, individual Western blots, listed as 341",0.5692 and 0.3629 and 0.5821
same,"pRab8/Rab8/LRRK2 normalized to DMSO, Mean","LRRK2; 10 μM, 4 h, 3 replicates",0.408
same,pRab8/Rab8/LRRK2 normalized to DMSO,"LRRK2; 10 μM, 4 h, individual Western blots, listed as 341",0.4385 and 0.2564 and 0.5293
same,toxicity,"LRRK2; 293T cells, any of the concentrations used",Toxicity did not appear to be an issue
same,effect on phosphorylation of Rab8a in cells,"LRRK2; 293T cells, increasing concentrations",reduced phosphorylation of Rab8a in a dose-dependent manner
same,"pRab8/Rab8/LRRK2 normalized to DMSO, Mean","LRRK2; GFP-11 tagged WT LRRK2, 5 μM, 4 replicates",0.2782
same,pRab8/Rab8/LRRK2 normalized to DMSO,"LRRK2; GFP-11 tagged WT LRRK2, 5 μM, individual blots, normalized to WT DMSO, listed as RN341",0.1752 and 0.6963 and 0.1155 and 0.1257
